We go through nine molecules from patent publication US5760054A, “Alpha IC adrenergic receptor antagonists” (priority 1996, dated 1998).

Usually IC50 stands for the concentration that inhibits the measured activity by half.

Numbering of substitutions follows the chain as printed. Where two headings read alike, the source gives them in different places.

In assay [1] the target is human/rat alpha1B adrenergic receptor. Kind of assay: Selective binding assay, competition with [125I]-HEAT on COS-7 membranes, α1B. On the set-up: species or system human/rat hybrid. Here is the method:
The partial human alpha1B adrenergic receptor cDNA was joined to the 3' end of the rat alpha1B adrenergic receptor cDNA at their common BssHII restriction endonuclease site. ID:25:
The complete coding region for the human/rat alpha1B adrenergic receptor was subcloned into the eukaryotic expression vector pcDNAI-neo (Invitrogen). The resulting plasmid was transfected into COS-7 cells by electroporation. […] Binding reactions (total volume=200 ul) contained 50 mM Tris-HCl pH. […] Reactions are incubated at room temperature for one hour with shaking. Reactions were filtered onto Whatman GF/C glass fiber filters with a Brandel cell harvester. Filters were washed three times with ice cold buffer and bound radioactivity was determined.
(§1) These competition binding reactions (total volume=200 ul) contain 50 mM Tris-HCl pH. […] Reactions are incubated at room temperature for one hour with shaking. Reactions were filtered onto Whatman GF/C glass fiber filters with a Brandel cell harvester. Filters were washed three times with ice cold buffer and bound radioactivity was determined. Binding data were analyzed and IC50s determined by an iterative curve fitting program.

Assay [2] concerns the target human alpha1A adrenergic receptor. The assay can be described thus: Selective binding assay, competition with [125I]-HEAT on COS-7 membranes, α1A. The following applies: Table I, 100 pM [125I]-HEAT. Here is the method:
The resulting plasmid was transfected into COS-7 cells by electroporation.
Binding reactions (total volume=200 ul) contained 50 mM Tris-HCl pH. […] Reactions are incubated at room temperature for one hour with shaking. Reactions were filtered onto Whatman GF/C glass fiber filters with a Brandel cell harvester. Filters were washed three times with ice cold buffer and bound radioactivity was determined.
as §1

For assay [3], the target named is T1, human alpha1C adrenergic receptor (Homo sapiens, UniProt P35348, C347R).
T1 construct: expressed in transfected cells; host or cells: COS-7 cells (pcDNAI-neo, electroporation), membranes
T1 sequence (P35348 1-466 C347R): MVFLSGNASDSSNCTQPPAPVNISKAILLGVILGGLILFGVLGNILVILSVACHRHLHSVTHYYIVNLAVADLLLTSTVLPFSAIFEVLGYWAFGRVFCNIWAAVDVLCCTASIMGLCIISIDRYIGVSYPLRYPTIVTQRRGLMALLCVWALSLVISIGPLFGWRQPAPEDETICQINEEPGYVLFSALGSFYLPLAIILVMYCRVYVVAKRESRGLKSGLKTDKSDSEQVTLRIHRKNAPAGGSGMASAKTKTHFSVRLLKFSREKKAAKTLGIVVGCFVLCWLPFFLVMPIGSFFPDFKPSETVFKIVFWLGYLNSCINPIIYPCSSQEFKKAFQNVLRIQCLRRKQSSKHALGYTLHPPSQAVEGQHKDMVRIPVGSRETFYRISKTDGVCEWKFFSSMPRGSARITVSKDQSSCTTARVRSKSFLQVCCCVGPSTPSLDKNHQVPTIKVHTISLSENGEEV
The assay can be described thus: Selective binding assay, competition with [125I]-HEAT on COS-7 membranes, α1C. The following applies: Table I, 100 pM [125I]-HEAT. Here is the method: The resulting plasmid was transfected into COS-7 cells by electroporation. […] Binding reactions (total volume=200 ul) contained 50 mM Tris-HCl pH. […] Reactions were incubated at room temperature for one hour with shaking. Reactions were filtered onto Whatman GF/C glass fiber filters with a Brandel cell harvester. Filters were washed three times with ice cold buffer and bound radioactivity was determined.
as §1, §1

The target in assay [4] is T2, human alpha-1c adrenergic receptor, allele 1 (LRR) (Homo sapiens, UniProt P35348, C347R).
T2 sequence (P35348 1-466 C347R): T1 sequence (P35348 1-466 C347R)
The assay can be described thus: biochemical. The source says:
(§2) To investigate the pharmacological profiles of the two allelic forms of the human alpha-1c adrenergic receptor we ligated the genomic exon 2 fragment of allele 2 to a cDNA clone of allele 1 at a common PvuII restriction site. The two allelic forms were transiently expressed in COS-7 cells using pcDNAI/NEO (Invitrogen) expression vector.

The target of assay [5] is T3, human alpha-1c adrenergic receptor, allele 2 (LCR) (Homo sapiens, UniProt P35348).
T3 sequence (P35348 1-466): T1 sequence (P35348 1-466 C347R) with R347C
Kind of assay: biochemical.
Text: as §2

Setting [6] is: Table I, 100 pM [125I]-HEAT, COS-7 membranes.

For the molecule `COC(=O)C1=C(C)NC(C)=C(C(=O)OCCCN2CCC(c3ccccc3)(c3ccccc3)CC2)[C@H]1c1cccc([N+](=O)[O-])c1` [S(+) niguldipine], in assay [1], the IC50 came to 670 nM.
With `COc1cccc(OC)c1OCCNCC1COc2ccccc2O1` (centres unmarked) [WB4101], the IC50 in assay [2] was 1 nM; in assay [1] (setting [6]), 16 nM; in assay [3] it was 1 nM; in assay [4], 0.9 nM; in assay [5] (read-out: IC50 LCR, Table II, allele 2 (Cys at amino acid 347), COS-7, 125I-HEAT), 1 nM.
The molecule `Cc1ccc(N(CC2=NCCN2)c2cccc(O)c2)cc1` [phentolamine] displayed an IC50 in assay [1] (setting [6]) of 650 nM.
Still for that read-out and setting: for `COc1cc2nc(N3CCN(C(=O)C4COc5ccccc5O4)CC3)nc(N)c2cc1OC` (centres unmarked) [doxazosin] the value was 2 nM.
Same read-out and setting: for `COc1cc2nc(N3CCN(C(=O)C4CCCO4)CC3)nc(N)c2cc1OC` (centres unmarked) [terazosin] the value was 5 nM.
For `COc1ccccc1N1CCN(CCCNc2c(C)c(=O)n(C)c(=O)n2C)CC1` [5-methyl urapidil], the IC50 in assay [2] is 42 nM; in assay [1] (setting [6]) it was 270 nM; in assay [3] it was 3.5 nM; in assay [4], 3.1 nM; in assay [5] it was 4.3 nM.
Consider `CC(COc1ccccc1)N(CCCl)Cc1ccccc1` (centres unmarked) [phenoxybenzamine], for which the half-inhibitory concentration (IC50) in assay [2] was 6.1 nM; in assay [1] (setting [6]), 4.3 nM.
`COc1cccc(OC)c1OCCNCC1CSc2ccccc2O1` (centres unmarked) [benoxathian]: the IC50 in assay [2] was determined as 2.5 nM; in assay [1] (setting [6]) it was 68 nM; in assay [3] it was 1.5 nM.
Turning to `COc1cc2nc(N3CCN(C(=O)c4ccco4)CC3)nc(N)c2cc1OC` [prazosin], in assay [1], the half-maximal inhibitory concentration (IC50) turned out to be 2.4 nM.
